Patent US20230129359A1, “MUSCARINIC RECEPTOR 4 ANTAGONISTS AND METHODS OF USE” (Neurocrine Biosciences, Inc., priority 2020, published 2023)

Target: T1, human M4 receptor (Homo sapiens, UniProt P08173)
T1 construct: expressed in transfected cells; host or cells: CHO cells
T1 sequence (P08173 1-479): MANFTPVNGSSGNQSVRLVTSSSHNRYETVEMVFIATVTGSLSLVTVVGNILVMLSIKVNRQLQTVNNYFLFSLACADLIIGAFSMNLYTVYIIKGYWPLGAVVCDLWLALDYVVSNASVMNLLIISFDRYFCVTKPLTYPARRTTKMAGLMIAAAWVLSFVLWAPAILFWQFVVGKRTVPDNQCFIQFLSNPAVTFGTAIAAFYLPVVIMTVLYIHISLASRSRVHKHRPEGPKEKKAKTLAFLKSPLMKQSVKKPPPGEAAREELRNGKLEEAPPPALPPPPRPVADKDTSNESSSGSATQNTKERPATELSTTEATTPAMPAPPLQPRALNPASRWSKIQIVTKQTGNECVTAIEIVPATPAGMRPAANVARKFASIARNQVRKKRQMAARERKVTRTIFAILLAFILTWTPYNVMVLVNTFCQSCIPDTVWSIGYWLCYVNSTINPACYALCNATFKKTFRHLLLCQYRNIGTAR
Test: Radioligand ([3H]N-methylscopolamine) binding assay, membranes from CHO cells expressing human M4 receptor
Conditions: Ki against human M4 receptor; membranes from CHO cells; tritiated N-methylscopolamine 1.5 nM; read-out: K
Procedure, shortened: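 Competition binding used CHO-cell membranes expressing human M4 with 1.5 nM [3H]N-methylscopolamine and twelve compound concentrations ([…]). Incubation was 90 minutes at 37 °C in 50 mM HEPES, 100 mM NaCl, 5 mM MgCl2, 1 mM EDTA, pH 7.4. Bound ligand was collected by filtration onto PEI-treated glass fibre for Ki.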

Row | Structure (SMILES) | Ki
1 | C[C@@H]1CN(c2ncc(C(F)(F)F)cn2)[C@@H](C)CN1C(=O)NC1CC2(C1)CN(Cc1ccc(Cl)cc1)C2 [Compound 256, (2R,5S)-N-{2-[(4-chlorophenyl)methyl]-2-azaspiro[3.3]heptan-6-yl}-2,5-dimethyl-4-[5-(trifluoromethyl)pyrimidin-2-yl]piperazine-1-carboxamide] | < 10 nM
2 | C[C@@H]1CN(c2ncc(C(F)(F)F)cn2)C[C@H](C)N1C(=O)NC1CC2(C1)CN(Cc1ccc(C(F)(F)F)cc1)C2 [Compound 323, (2R,6S)-2,6-dimethyl-N-(2-{[4-(trifluoromethyl)phen-yl]methyl}-2-aza-spiro[3.3]heptan-6-yl)-4-[5-(trifluoromethyl)pyrimidin-2-yl]piperazine-1-carboxamide] | 10 to 100 nM
3 | CCCc1cnc(N2C[C@@H](C)N(C(=O)OC3CC4(C3)CN(Cc3ccccc3)C4)[C@@H](C)C2)nc1 [Compound 504, 2-benzyl-2-azaspiro[3.3]heptan-6-yl (2R,6S)-2,6-dimethyl-4-(5-propylpyrimidin-2-yl)piperazine-1-carboxylate] | < 10 nM
4 | C[C@@H]1CN(c2ncc3ccccc3n2)C[C@H](C)N1C(=O)OC1CC2(C1)CN(Cc1ccncc1)C2 [Compound 421, 2-(pyridin-4-ylmethyl)-2-azaspiro[3.3]heptan-6-yl (2R,6S)-2,6-dimethyl-4-(quinazolin-2-yl)piperazine-1-carboxylate] | 100 to 1000 nM
5 | CSc1nc(N2C[C@@H](C)N(C(=O)OC3CC4(C3)CN(Cc3ccccc3)C4)[C@@H](C)C2)ncc1Br [Compound 169, 2-benzyl-2-azaspiro[3.3]heptan-6-yl (2R,6S)-4-[5-bromo-4-(methylsulfanyl)pyrimidin-2-yl]-2,6-dimethylpiperazine-1-carboxylate] | 10 to 100 nM
6 | C[C@@H]1CN(c2nc3ccc(C(F)(F)F)cc3s2)C[C@H](C)N1C(=O)OC1CC2(C1)CN(Cc1ccc(F)cc1)C2 [Compound 384, 2-[(4-fluorophenyl)methyl]-2-azaspiro[3.3]heptan-6-yl (2R,6S)-2,6-dimethyl-4-[6-(trifluoromethyl)-1,3-benzothiazol-2-yl]piperazine-1-carboxylate] | < 10 nM
7 | C[C@@H]1CN(c2ncc(C#N)cn2)C[C@H](C)N1C(=O)OC1CC2(C1)CN(Cc1ccc(F)cc1)C2 [Compound 472, 2-[(4-fluorophenyl)methyl]-2-azaspiro[3.3]heptan-6-yl (2R,6S)-4-(5-cyanopyrimidin-2-yl)-2,6-dimethylpiperazine-1-carboxylate] | 10 to 100 nM
8 | COc1ccc2nc(N3C[C@@H](C)N(C(=O)OC4CC5(C4)CN(Cc4ccccc4)C5)[C@@H](C)C3)cnc2c1 [Compound 379, 2-benzyl-2-azaspiro[3.3]heptan-6-yl (2R,6S)-4-(6-methoxyquinoxalin-2-yl)-2,6-dimethylpiperazine-1-carboxylate] | 10 to 100 nM
9 | C[C@@H]1CN(c2ncc(C#N)cn2)C[C@H](C)N1C(=O)NC1CC2(C1)CN(Cc1ccc(Cl)cc1)C2 [Compound 251, (2R,6S)-N-{2-[(4-chlorophenyl)methyl]-2-azaspiro[3.3]heptan-6-yl}-4-(5-cyanopyrimidin-2-yl)-2,6-dimethylpiperazine-1-carboxamide] | 10 to 100 nM
10 | C[C@@H]1CN(c2nc3ccc(C(F)(F)F)cc3o2)C[C@H](C)N1C(=O)OC1CC2(C1)CN(Cc1ccccc1)C2 [Compound 428, 2-benzyl-2-azaspiro[3.3]heptan-6-yl (2R,6S)-2,6-dimethyl-4-[6-(trifluoromethyl)-1,3-benzoxazol-2-yl]piperazine-1-carboxylate] | < 10 nM
11 | C[C@@H]1CN(c2ncc(C(F)(F)F)cn2)C[C@@H](C)N1C(=O)OCC1CC2(C1)CN(Cc1ccccc1)C2 [Compound 144, {2-benzyl-2-azaspiro[3.3]heptan-6-yl}methyl (2R,6R)-2,6-dimethyl-4-[5-(trifluoromethyl)pyrimidin-2-yl]piperazine-1-carboxylate] | 10 to 100 nM
12 | C[C@@H]1CN(c2ncc(C(F)(F)F)cn2)C[C@H](C)N1C(=O)NC1CC2(C1)CN(Cc1ccc(Cl)s1)C2 [Compound 340, (2R,6S)-N-{2-[(5-chlorothiophen-2-yl)methyl]-2-azaspiro[3.3]heptan-6-yl}-2,6-dimethyl-4-[5-(trifluoromethyl)pyrimidin-2-yl]piperazine-1-carboxamide] | < 10 nM
13 | C[C@@H]1CN(c2cnc3ccccc3n2)C[C@H](C)N1C(=O)OC1CC2(C1)CN(Cc1ccc(F)cc1)C2 [Compound 391, 2-[(4-fluorophenyl)methyl]-2-azaspiro[3.3]heptan-6-yl (2R,6S)-2,6-dimethyl-4-(quinoxalin-2-yl)piperazine-1-carboxylate] | 10 to 100 nM
14 | C[C@@H]1CN(c2ncc(C(F)(F)F)cn2)C[C@H](C)N1C(=O)OC1CC2(C1)CN(CC1CC3C=CC1C3)C2 (stereo partly drawn) [Compound 155, 2-{bicyclo[2.2.1]hept-5-en-2-ylmethyl}-2-azaspiro[3.3]heptan-6-yl (2R,6S)-2,6-dimethyl-4-[5-(trifluoromethyl)pyrimidin-2-yl]piperazine-1-carboxylate] | 10 to 100 nM
15 | C[C@@H]1CN(c2nc3cc(F)ccc3s2)C[C@@H](C)N1C(=O)OC1CC2(C1)CN(Cc1ccccc1)C2 [Compound 439, 2-benzyl-2-azaspiro[3.3]heptan-6-yl (2R,6R)-4-(5-fluoro-1,3-benzothiazol-2-yl)-2,6-dimethylpiperazine-1-carboxylate] | 10 to 100 nM
16 | C[C@@H]1CN(c2ncc(C(F)(F)F)cc2F)C[C@H](C)N1C(=O)NC1CC2(C1)CN(Cc1ccccc1)C2 [Compound 227, (2R,6S)-N-{2-benzyl-2-azaspiro[3.3]heptan-6-yl}-4-[3-fluoro-5-(trifluoromethyl)pyridin-2-yl]-2,6-dimethylpiperazine-1-carboxamide] | < 10 nM

Continued, values first:

Row | Ki | Structure (SMILES)
17 | < 10 nM | C[C@@H]1CN(c2ncc(C(F)(F)F)cn2)[C@@H](C)CN1C(=O)OC1CC2(C1)CN(Cc1ccc(F)cc1)C2 [Compound 456, 2-[(4-fluorophenyl)methyl]-2-azaspiro[3.3]heptan-6-yl (2R,5S)-2,5-dimethyl-4-[5-(trifluoromethyl)pyrimidin-2-yl]piperazine-1-carboxylate]
18 | 10 to 100 nM | C[C@H]1CN(C(=O)NC2CC3(C2)CN(Cc2ccccc2)C3)CCN1c1ncc(C(F)(F)F)cn1 [Compound 6, (3S)-N-{2-benzyl-2-azaspiro[3.3]heptan-6-yl}-3-methyl-4-[5-(trifluoromethyl)pyrimidin-2-yl]piperazine-1-carboxamide]
19 | 10 to 100 nM | COc1ccc2nc(N3C[C@@H](C)N(C(=O)OC4CC5(C4)CN(Cc4ccc(F)cc4)C5)C[C@@H]3C)cnc2c1 [Compound 396, 2-[(4-fluorophenyl)methyl]-2-azaspiro[3.3]heptan-6-yl (2R,5S)-4-(6-methoxyquinoxalin-2-yl)-2,5-dimethylpiperazine-1-carboxylate]
20 | 100 to 1000 nM | C[C@@H]1CN(c2ncc(C(F)(F)F)cn2)C[C@H](C)N1C(=O)OC1CC2(C1)CN(CCC(C)(C)C)C2 [Compound 149, 2-(3,3-dimethylbutyl)-2-azaspiro[3.3]heptan-6-yl (2R,6S)-2,6-dimethyl-4-[5-(trifluoromethyl)pyrimidin-2-yl]piperaizne-1-carboxylate]
21 | 10 to 100 nM | C[C@@H]1CN(c2ccc(C(F)(F)F)nc2)C[C@H](C)N1C(=O)OC1CC2(C1)CN(Cc1ccccc1)C2 [Compound 191, 2-bnezyl-2-azaspiro[3.3]heptan-6-yl (2R,6S)-2,6-dimethyl-4-[6-(trifluoromethyl)pyridin-3-yl]piperazine-1-carboxylate]
22 | 10 to 100 nM | C[C@@H]1CN(c2ncc(C(F)(F)F)cn2)C[C@H](C)N1C(=O)NC1CC2(C1)CN(CC1=CCCCC1)C2 [Compound 313, (2R,6S)-N-[2-(cyclohex-1-en-1-ylmethyl)-2-azaspiro[3.3]heptan-6-yl]-2,6-dimethyl-4-[5-(trifluoromethyl)pyrimidin-2-yl]piperazine-1-carboxamide]
23 | 100 to 1000 nM | COc1cc(N2C[C@@H](C)N(C(=O)OC3CC4(C3)CN(Cc3ccccc3)C4)[C@@H](C)C2)ccc1C#N [Compound 526, 2-benzyl-2-azaspiro[3.3]heptan-6-yl (2R,6S)-4-(4-cyano-3-methoxyphenyl)-2,6-dimethylpiperazine-1-carboxylate]
24 | 10 to 100 nM | C#Cc1cnc(N2C[C@@H](C)N(C(=O)OC3CC4(C3)CN(Cc3ccccc3)C4)[C@@H](C)C2)nc1 [Compound 508, 2-benzyl-2-azaspiro[3.3]heptan-6-yl (2R,6S)-4-(5-ethynylpyrimidin-2-yl)-2,6-dimethylpiperazine-1-carboxylate]
25 | 10 to 100 nM | C[C@@H]1CN(c2cnc3cc(C(F)(F)F)ccc3n2)C[C@H](C)N1C(=O)NC1CC2(C1)CN(Cc1ccccc1)C2 [Compound 235, (2R,6S)-N-{2-benzyl-2-azaspiro[3.3]heptan-6-yl}-2,6-dimethyl-4-[6-(trifluoromethyl)quinoxalin-2-yl]piperazine-1-carboxamide]
26 | < 10 nM | C[C@@H]1CN(c2nc3ccc(C(F)(F)F)cc3s2)C[C@@H](C)N1C(=O)NC1CC2(C1)CN(Cc1ccccc1)C2 [Compound 217, (2R,6R)-N-{2-benzyl-2-azaspiro[3.3]heptan-6-yl}-2,6-dimethyl-4-[6-(trifluoromethyl)-1,3-benzothiazol-2-yl]piperazine-1-carboxamide]
